Measured values as given in patent US20250114345A1, “COMPOUNDS AND COMPOSITIONS AS CBP/P300 DEGRADERS AND USES THEREOF” (Oncopia Therapeutics, Inc. d/b/a/ SK Life Science Labs, priority 2023, published 2025).

Key:
p300 = biological target: T1, p300 (Homo sapiens, UniProt Q09472); assay: P300 degradation, HiBit technology in A549 P300 HiBit cells (2 h); assay type: cell-based; conditions: 2 hrs post treatment; for Dmax: A549, A549 P300 HiBit cells; for DC50: A549 P300 HiBit cells
T1 construct: host or cells: A549 P300 HiBit cells
How it was run: (§1)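 Cells: A549 HiBiT-tagged lines, 0.2×10^4/well, F-12K + 10% HI-FBS, equilibrated overnight. Tx: serial dilution of cpd (10 mM DMSO stock). Readout: HiBiT lytic reagent, 10 min RT shaking, luminescence → potency, Dmax.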

CBP = biological target: T2, CBP (Homo sapiens, UniProt Q92793); assay: CBP degradation, HiBit technology in A549 CBP HiBit cells (24 h); assay type: cell-based; conditions: 24 hrs post treatment
T2 construct: host or cells: A549 CBP HiBit cells
How it was run: as §1

T2 sequence (Q92793 whole entry): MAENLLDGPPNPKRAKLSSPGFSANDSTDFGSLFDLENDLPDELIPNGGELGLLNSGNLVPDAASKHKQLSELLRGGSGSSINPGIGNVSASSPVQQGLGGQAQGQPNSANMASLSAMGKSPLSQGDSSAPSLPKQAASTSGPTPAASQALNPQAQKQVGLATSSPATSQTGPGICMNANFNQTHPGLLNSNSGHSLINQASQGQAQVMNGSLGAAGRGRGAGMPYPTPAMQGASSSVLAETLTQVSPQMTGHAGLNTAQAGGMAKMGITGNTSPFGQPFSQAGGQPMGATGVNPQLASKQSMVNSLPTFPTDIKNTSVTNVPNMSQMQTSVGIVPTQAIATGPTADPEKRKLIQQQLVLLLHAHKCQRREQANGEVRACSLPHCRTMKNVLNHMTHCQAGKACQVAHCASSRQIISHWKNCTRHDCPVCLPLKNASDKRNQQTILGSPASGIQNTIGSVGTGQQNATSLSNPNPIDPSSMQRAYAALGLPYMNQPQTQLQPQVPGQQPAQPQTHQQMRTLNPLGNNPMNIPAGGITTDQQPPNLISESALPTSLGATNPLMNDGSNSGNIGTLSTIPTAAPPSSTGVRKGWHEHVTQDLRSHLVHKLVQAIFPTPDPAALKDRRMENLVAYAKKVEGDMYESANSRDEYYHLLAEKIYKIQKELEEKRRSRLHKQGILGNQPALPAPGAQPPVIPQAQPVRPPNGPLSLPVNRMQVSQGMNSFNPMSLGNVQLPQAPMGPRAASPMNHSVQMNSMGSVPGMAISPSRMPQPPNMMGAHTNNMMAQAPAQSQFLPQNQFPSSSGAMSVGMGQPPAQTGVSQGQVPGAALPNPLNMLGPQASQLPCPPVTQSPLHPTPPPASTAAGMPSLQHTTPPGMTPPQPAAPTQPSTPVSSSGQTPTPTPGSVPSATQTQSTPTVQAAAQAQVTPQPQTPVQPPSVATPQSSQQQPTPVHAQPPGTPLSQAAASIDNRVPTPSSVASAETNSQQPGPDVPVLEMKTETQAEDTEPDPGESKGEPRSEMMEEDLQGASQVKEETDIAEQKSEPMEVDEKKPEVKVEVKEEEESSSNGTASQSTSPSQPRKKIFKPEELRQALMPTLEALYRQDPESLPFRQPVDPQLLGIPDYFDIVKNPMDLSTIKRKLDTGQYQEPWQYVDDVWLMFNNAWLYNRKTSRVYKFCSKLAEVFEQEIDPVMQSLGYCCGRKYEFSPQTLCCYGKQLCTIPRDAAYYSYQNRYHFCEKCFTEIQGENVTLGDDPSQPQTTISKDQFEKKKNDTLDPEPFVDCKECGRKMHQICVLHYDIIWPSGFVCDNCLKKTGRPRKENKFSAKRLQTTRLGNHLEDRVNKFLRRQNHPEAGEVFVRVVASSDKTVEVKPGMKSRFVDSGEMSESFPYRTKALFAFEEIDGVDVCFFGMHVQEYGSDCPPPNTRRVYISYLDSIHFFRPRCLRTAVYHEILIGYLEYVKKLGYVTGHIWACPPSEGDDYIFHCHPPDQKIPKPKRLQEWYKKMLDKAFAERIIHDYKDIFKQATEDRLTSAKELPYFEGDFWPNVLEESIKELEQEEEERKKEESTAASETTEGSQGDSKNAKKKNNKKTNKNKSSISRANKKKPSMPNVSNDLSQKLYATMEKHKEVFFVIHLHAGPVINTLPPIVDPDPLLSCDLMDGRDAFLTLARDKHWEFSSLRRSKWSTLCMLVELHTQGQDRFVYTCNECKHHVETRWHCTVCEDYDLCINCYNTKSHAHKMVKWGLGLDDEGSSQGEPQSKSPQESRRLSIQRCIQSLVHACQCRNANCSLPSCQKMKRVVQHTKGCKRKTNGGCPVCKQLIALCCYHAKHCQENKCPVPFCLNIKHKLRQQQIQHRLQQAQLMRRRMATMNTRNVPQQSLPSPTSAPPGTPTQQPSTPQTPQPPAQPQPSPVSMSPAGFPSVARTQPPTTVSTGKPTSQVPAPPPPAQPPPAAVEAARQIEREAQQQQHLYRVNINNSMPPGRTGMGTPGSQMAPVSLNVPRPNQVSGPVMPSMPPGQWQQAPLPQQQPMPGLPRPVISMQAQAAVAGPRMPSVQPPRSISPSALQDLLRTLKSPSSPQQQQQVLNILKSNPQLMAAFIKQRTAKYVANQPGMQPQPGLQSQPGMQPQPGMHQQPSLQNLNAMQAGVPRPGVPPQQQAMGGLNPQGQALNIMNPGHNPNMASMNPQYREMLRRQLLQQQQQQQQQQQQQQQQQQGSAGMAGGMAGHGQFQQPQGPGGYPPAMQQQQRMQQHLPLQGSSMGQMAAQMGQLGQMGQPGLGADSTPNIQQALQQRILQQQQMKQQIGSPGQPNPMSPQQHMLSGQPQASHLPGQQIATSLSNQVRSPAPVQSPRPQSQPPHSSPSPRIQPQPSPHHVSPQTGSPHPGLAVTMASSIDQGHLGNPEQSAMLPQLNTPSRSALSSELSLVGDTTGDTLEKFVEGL
T1 sequence (Q09472 whole entry): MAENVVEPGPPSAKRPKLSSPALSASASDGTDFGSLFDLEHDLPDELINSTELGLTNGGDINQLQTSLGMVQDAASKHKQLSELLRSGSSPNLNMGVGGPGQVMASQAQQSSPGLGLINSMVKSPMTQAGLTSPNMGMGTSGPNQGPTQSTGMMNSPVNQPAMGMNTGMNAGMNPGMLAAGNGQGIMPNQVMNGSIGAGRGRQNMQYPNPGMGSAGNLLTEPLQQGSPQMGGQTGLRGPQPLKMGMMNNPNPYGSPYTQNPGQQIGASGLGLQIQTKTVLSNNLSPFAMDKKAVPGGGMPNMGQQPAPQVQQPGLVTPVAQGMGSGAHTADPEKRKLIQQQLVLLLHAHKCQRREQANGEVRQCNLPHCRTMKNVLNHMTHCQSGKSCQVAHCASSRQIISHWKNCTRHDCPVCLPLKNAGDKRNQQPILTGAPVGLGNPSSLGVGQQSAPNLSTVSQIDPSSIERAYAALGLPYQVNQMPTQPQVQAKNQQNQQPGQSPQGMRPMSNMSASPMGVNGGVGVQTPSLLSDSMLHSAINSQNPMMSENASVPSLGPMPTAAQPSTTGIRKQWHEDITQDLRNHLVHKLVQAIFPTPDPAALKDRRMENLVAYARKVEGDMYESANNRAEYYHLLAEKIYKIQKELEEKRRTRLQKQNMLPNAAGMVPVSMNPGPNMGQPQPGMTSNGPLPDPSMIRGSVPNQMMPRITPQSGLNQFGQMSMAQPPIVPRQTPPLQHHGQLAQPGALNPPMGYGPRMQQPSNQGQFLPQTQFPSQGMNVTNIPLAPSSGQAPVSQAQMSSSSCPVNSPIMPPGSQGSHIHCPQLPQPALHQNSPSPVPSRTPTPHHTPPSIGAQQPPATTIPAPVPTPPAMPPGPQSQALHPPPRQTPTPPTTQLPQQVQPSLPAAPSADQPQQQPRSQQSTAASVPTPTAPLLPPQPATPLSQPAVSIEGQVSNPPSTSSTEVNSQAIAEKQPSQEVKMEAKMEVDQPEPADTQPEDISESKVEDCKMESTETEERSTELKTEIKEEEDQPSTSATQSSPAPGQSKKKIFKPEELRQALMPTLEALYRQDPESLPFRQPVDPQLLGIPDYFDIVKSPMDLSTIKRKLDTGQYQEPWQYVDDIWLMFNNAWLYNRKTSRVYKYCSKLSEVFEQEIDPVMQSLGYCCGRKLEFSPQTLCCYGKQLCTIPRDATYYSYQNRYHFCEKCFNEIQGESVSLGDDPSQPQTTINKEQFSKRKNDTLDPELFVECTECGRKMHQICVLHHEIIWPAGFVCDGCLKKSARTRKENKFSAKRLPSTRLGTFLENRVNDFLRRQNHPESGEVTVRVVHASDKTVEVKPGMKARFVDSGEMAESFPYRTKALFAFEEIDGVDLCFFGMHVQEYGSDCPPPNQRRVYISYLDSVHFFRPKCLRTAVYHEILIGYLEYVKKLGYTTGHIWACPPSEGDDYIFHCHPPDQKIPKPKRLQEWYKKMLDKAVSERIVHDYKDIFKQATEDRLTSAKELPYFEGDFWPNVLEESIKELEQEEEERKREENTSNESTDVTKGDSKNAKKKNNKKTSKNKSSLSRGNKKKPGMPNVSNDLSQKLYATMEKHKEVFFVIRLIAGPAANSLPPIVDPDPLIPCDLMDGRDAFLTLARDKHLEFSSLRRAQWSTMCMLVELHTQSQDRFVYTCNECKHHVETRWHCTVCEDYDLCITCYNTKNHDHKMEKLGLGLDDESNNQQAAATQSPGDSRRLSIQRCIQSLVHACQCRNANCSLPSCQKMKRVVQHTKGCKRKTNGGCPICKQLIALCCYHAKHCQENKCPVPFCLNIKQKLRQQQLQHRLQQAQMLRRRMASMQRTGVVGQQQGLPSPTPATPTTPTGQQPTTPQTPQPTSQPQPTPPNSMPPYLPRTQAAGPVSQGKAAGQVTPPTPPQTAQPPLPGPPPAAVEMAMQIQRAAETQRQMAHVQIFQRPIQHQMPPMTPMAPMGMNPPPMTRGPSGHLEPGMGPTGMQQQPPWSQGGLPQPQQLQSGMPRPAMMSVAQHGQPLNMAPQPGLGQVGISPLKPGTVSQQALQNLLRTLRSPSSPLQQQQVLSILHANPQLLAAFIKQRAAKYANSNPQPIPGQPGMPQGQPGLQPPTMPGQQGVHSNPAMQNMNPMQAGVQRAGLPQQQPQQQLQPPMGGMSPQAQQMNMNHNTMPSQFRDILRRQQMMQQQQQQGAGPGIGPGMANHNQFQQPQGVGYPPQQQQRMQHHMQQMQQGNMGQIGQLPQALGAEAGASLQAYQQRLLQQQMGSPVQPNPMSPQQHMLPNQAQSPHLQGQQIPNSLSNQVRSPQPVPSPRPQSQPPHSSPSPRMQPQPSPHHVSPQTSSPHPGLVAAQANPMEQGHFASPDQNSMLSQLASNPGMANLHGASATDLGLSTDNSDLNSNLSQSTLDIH

Dmax (p300) | DC50 (p300) | DC50 (CBP) | Dmax (CBP) | SMILES
60 to 79% | 1 to 9.9 nM | > 1000 nM | < 20% | Cc1cc2c(N3CCCc4nc(-c5ccc(C(=O)NCC#Cc6ccc7occ(C8CCC(=O)NC8=O)c7c6)nc5)ncc43)cc(N3CCOCC3)nc2n(C)c1=O (stereo not shown) [Example B61, 5-(5-(6,8-dimethyl-2-morpholino-7-oxo-7,8-dihydro-1,8-naphthyridin-4-yl)-5,6,7,8-tetrahydropyrido[3,2-d]pyrimidin-2-yl)-N-(3-(3-(2,6-dioxopiperidin-3-yl)benzofuran-5-yl)prop-2-yn-1-yl)picolinamide]
> 80% | 1 to 9.9 nM | > 1000 nM | < 20% | Cc1cc2c(N3CCCc4nc(-c5ccc(C(=O)NCC#Cc6ccc7occ(C8CCC(=O)NC8=O)c7c6)nc5)ncc43)nc(N3CCOCC3)cc2n(C)c1=O (stereo not shown) [Example B62, 5-(5-(1,3-dimethyl-7-morpholino-2-oxo-1,2-dihydro-1,6-naphthyridin-5-yl)-5,6,7,8-tetrahydropyrido[3,2-d]pyrimidin-2-yl)-N-(3-(3-(2,6-dioxopiperidin-3-yl)benzofuran-5-yl)prop-2-yn-1-yl)picolinamide]
> 80% | 1 to 9.9 nM | > 1000 nM | < 20% | Cc1cc(-c2ncc3c(n2)CCCN3c2nc(N3CCOCC3)cc3c2cc(C)c(=O)n3C)cnc1C(=O)NCC#Cc1ccc2occ(C3CCC(=O)NC3=O)c2c1 (stereo not shown) [Example B71, 5-(5-(1,3-dimethyl-7-morpholino-2-oxo-1,2-dihydro-1,6-naphthyridin-5-yl)-5,6,7,8-tetrahydropyrido[3,2-d]pyrimidin-2-yl)-N-(3-(3-(2,6-dioxopiperidin-3-yl)benzofuran-5-yl)prop-2-yn-1-yl)-3-methylpicolinamide]
60 to 79% | 1 to 9.9 nM | > 1000 nM | < 20% | Cc1cc2c(N3CCCc4nc(-c5ccc(C(=O)NCC#Cc6ccc7occ([C@H]8CCC(=O)NC8=O)c7c6)nc5)ncc43)nc(N3CCOCC3)cc2n(C)c1=O [Example B72, (R)-5-(5-(1,3-dimethyl-7-morpholino-2-oxo-1,2-dihydro-1,6-naphthyridin-5-yl)-5,6,7,8-tetrahydropyrido[3,2-d]pyrimidin-2-yl)-N-(3-(3-(2,6-dioxopiperidin-3-yl)benzofuran-5-yl)prop-2-yn-1-yl)picolinamide]
> 80% | 1 to 9.9 nM | > 1000 nM | < 20% | Cc1cc2c(N3CCCc4nc(-c5ccc(C(=O)NCC#Cc6ccc7occ([C@@H]8CCC(=O)NC8=O)c7c6)nc5)ncc43)nc(N3CCOCC3)cc2n(C)c1=O [Example B73, (S)-5-(5-(1,3-dimethyl-7-morpholino-2-oxo-1,2-dihydro-1,6-naphthyridin-5-yl)-5,6,7,8-tetrahydropyrido[3,2-d]pyrimidin-2-yl)-N-(3-(3-(2,6-dioxopiperidin-3-yl)benzofuran-5-yl)prop-2-yn-1-yl)picolinamide]

More lines, now with the values behind:

SMILES | Dmax (p300) | DC50 (p300) | DC50 (CBP) | Dmax (CBP)
Cc1cc2c(N3CCCc4nc(-c5ccc(C(=O)NCC#Cc6oc7cccc(C8CCC(=O)NC8=O)c7c6F)nc5)ncc43)cc(C3CCOCC3)cc2n(C)c1=O (stereo not shown) [Example B60, 5-(5-(1,3-dimethyl-2-oxo-7-(tetrahydro-2H-pyran-4-yl)-1,2-dihydroquinolin-5-yl)-5,6,7,8-tetrahydropyrido[3,2-d]pyrimidin-2-yl)-N-(3-(4-(2,6-dioxopiperidin-3-yl)-3-fluorobenzo-furan-2-yl)prop-2-yn-1-yl)picolinamide] | > 80% | 1 to 9.9 nM | > 1000 nM | < 20%
Cc1cc2c(N3CCOc4cc(-c5ccc(C(=O)NCC#Cc6ccc7occ(C8CCC(=O)NC8=O)c7c6)nc5)c(F)cc43)cc(N3CC(C)(O)C3)cc2n(C)c1=O (stereo not shown) [Example B63, N-(3-(3-(2,6-dioxopiperidin-3-yl)benzofuran-5-yl)prop-2-yn-1-yl)-5-(6-fluoro-4-(7-(3-hydroxy-3-methylazetidin-1-yl)-1,3-dimethyl-2-oxo-1,2-dihydroquinolin-5-yl)-3,4-dihydro-2H-benzo[b][1,4]oxazin-7-yl) picolinamide] | > 80% | 1 to 9.9 nM | 10 to 99 nM | 20 to 39%
Cc1cc2c(N3CCCc4cc(-c5ccc(C(=O)NCC#Cc6ccc7occ(C8CCC(=O)NC8=O)c7c6)nc5)nnc43)cc(C3CCOCC3)cc2n(C)c1=O (stereo not shown) [Example B64, 5-(8-(1,3-dimethyl-2-oxo-7-(tetrahydro-2H-pyran-4-yl)-1,2-dihydroquinolin-5-yl)-5,6,7,8-tetrahydropyrido[2,3-c]pyridazin-3-yl)-N-(3-(3-(2,6-dioxopiperidin-3-yl)benzofuran-5-yl)prop-2-yn-1-yl)picolinamide] | > 80% | 1 to 9.9 nM | > 1000 nM | < 20%
Cc1cc2c(-c3cccc4cc(-c5ccc(C(=O)NCC#Cc6ccc7occ(C8CCC(=O)NC8=O)c7c6)nc5)ncc34)nc(N3CC(O)C3)cc2n(C)c1=O (stereo not shown) [Example B66, N-(3-(3-(2,6-dioxopiperidin-3-yl)benzofuran-5-yl)prop-2-yn-1-yl)-5-(8-(7-(3-hydroxy-azetidin-1-yl)-1,3-dimethyl-2-oxo-1,2-dihydro-1,6-naphthyridin-5-yl)isoquinolin-3-yl) picolinamide] | > 80% | < 1 nM | > 1000 nM | < 20%
Cc1cc2c(N3CCCc4nc(-c5ccc(C(=O)NCC#Cc6cc7c(C8CCC(=O)NC8=O)cccc7o6)nc5)ncc43)cccc2n(C)c1=O (stereo not shown) [Example B67, 5-(5-(1,3-dimethyl-2-oxo-1,2-dihydroquinolin-5-yl)-5,6,7,8-tetrahydropyrido[3,2-d]pyrimidin-2-yl)-N-(3-(4-(2,6-dioxopiperidin-3-yl)benzofuran-2-yl)prop-2-yn-1-yl)picolinamide] | > 80% | < 1 nM | 100 to 999 nM | < 20%
Cc1cc2c(N3CCCc4nc(-c5ccc(C(=O)NCC#Cc6ccc7occ(C8CCC(=O)NC8=O)c7c6)nc5)ncc43)nc(N3CC(F)C3)cc2n(C)c1=O (stereo not shown) [Example B68, N-(3-(3-(2,6-dioxopiperidin-3-yl)benzofuran-5-yl)prop-2-yn-1-yl)-5-(5-(7-(3-fluoroazetidin-1-yl)-1,3-dimethyl-2-oxo-1,2-dihydro-1,6-naphthyridin-5-yl)-5,6,7,8-tetrahydropyrido [3,2-d]pyrimidin-2-yl)picolinamide] | 60 to 79% | 1 to 9.9 nM | > 1000 nM | < 20%
Cc1cc2c(N3CCCc4nc(-c5ccc(C(=O)NCC#Cc6ccc7occ(C8CCC(=O)NC8=O)c7c6)nc5)ncc43)cncc2n(C)c1=O (stereo not shown) [Example B69, 5-(5-(1,3-dimethyl-2-oxo-1,2-dihydro-1,7-naphthyridin-5-yl)-5,6,7,8-tetrahydropyrido [3,2-d]pyrimidin-2-yl)-N-(3-(3-(2,6-dioxo-piperidin-3-yl)benzofuran-5-yl)prop-2-yn-1-yl)picolinamide] | 40 to 59% | 1 to 9.9 nM | > 1000 nM | < 20%
Cc1cc2c(-c3cccc4cc(-c5ccc(C(=O)NCC#Cc6cc7c(C8CCC(=O)NC8=O)cccc7o6)nc5)ncc34)nc(N3CCOCC3)cc2n(C)c1=O (stereo not shown) [Example B74, 5-(8-(1,3-dimethyl-7-morpholino-2-oxo-1,2-dihydro-1,6-naphthyridin-5-yl)isoquinolin-3-yl)-N-(3-(4-(2,6-dioxopiperidin-3-yl)benzofuran-2-yl)prop-2-yn-1-yl)picolinamide] | > 80% | 1 to 9.9 nM | > 1000 nM | < 20%
